Measured values: patent US9771370B2, “Compounds for the inhibition of indoleamine-2,3-dioxygenase” (Merck Patent GmbH, priority 2014, dated 2017)

Target: Recombinant human IDO (Homo sapiens, UniProt P14902)
Test: Bridge-IT tryptophan fluorescence assay of human IDO-1 inhibition
Assay type: biochemical
Details: recombinant human IDO 7.5 nM, L-tryptophan
Method in brief: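 Two protocol variants: 100 μM L-Trp for 90 min at 37 °C, or 30 min enzyme–compound pre-incubation at 25 °C, then 50 μM L-Trp for 60 min at 25 °C. Reaction stopped in Bridge-IT solution A for 30 min at 30 °C.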

Sequence of Recombinant human IDO (P14902 whole entry): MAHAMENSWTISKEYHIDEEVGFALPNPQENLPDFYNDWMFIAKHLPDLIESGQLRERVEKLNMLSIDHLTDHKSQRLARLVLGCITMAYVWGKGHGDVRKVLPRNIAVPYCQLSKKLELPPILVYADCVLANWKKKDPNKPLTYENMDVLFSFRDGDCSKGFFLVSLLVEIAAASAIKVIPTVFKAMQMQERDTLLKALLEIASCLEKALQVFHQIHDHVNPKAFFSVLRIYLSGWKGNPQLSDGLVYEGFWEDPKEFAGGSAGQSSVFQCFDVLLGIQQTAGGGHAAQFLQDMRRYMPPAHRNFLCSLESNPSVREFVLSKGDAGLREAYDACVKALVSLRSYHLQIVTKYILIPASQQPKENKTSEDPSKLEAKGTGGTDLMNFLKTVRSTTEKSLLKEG

Row | Structure (SMILES) | IC50 [nM]
1 | CN(C)C(=O)C1CCC(F)(CCC2c3c(Cl)cccc3-c3cncn32)CC1 (single isomer, unassigned) [Compound 114c, 4-[2-[6-chloro-5H-imidazo[4,3-a]isoindol-5-yl]ethyl]-4-fluoro-N,N-dimethylcyclohexane-1-carboxamide] | > 1000
2 | CN(C)C(=O)C1CCC(F)(CCC2c3c(Cl)cccc3-c3cncn32)CC1 (single isomer, unassigned) [Compound 114d, 4-[2-[6-chloro-5H-imidazo[4,3-a]isoindol-5-yl]ethyl]-4-fluoro-N,N-dimethylcyclohexane-1-carboxamide] | > 1000
3 | O=C(C1CCC(F)(CCC2c3c(Cl)cccc3-c3cncn32)CC1)N1CCCCC1 (single isomer, unassigned) [Compound 115a] | < 100
4 | O=C(C1CCC(F)(CCC2c3c(Cl)cccc3-c3cncn32)CC1)N1CCCCC1 (single isomer, unassigned) [Compound 115b] | < 100
5 | O=C(C1CCC(F)(CCC2c3c(Cl)cccc3-c3cncn32)CC1)N1CCCCC1 (single isomer, unassigned) [Compound 115c] | 100 to 1000
6 | O=C(C1CCC(F)(CCC2c3c(Cl)cccc3-c3cncn32)CC1)N1CCCCC1 (single isomer, unassigned) [Compound 115d] | > 1000
7 | NC(=O)CC1CCC(F)(CCC2c3c(F)cccc3-c3cncn32)CC1 (single isomer, unassigned) [Compound 116a, 2-[4-Fluoro-4-[2-[6-fluoro-5H-imidazo[4,3-a]isoindol-5-yl]ethyl]cyclohexyl]acetamide] | > 1000
8 | NC(=O)CC1CCC(F)(CCC2c3c(F)cccc3-c3cncn32)CC1 (single isomer, unassigned) [Compound 116b, 2-[4-Fluoro-4-[2-[6-fluoro-5H-imidazo[4,3-a]isoindol-5-yl]ethyl]cyclohexyl]acetamide] | < 100
9 | NC(=O)CC1CCC(F)(CCC2c3c(F)cccc3-c3cncn32)CC1 (single isomer, unassigned) [Compound 116c, 2-[4-Fluoro-4-[2-[6-fluoro-5H-imidazo[4,3-a]isoindol-5-yl]ethyl]cyclohexyl]acetamide] | > 1000
10 | NC(=O)CC1CCC(F)(CCC2c3c(F)cccc3-c3cncn32)CC1 (single isomer, unassigned) [Compound 116d, 2-[4-Fluoro-4-[2-[6-fluoro-5H-imidazo[4,3-a]isoindol-5-yl]ethyl]cyclohexyl]acetamide] | < 100
11 | OC(CC1c2ncccc2-c2cncn21)C1CCC(C2(O)CC2)CC1 (single isomer, unassigned) [Compound 117a, 1-[4-[1-hydroxy-2-[4,6,9-triazatricyclo[6.4.0.0^[2,6]]dodeca-1(8),2,4,9,11-pentaen-7-yl]ethyl]cyclohexyl]cyclopropan-1-ol] | > 1000
12 | OC(CC1c2ncccc2-c2cncn21)C1CCC(C2(O)CC2)CC1 (single isomer, unassigned) [Compound 117b, 1-[4-[1-hydroxy-2-[4,6,9-triazatricyclo[6.4.0.0^[2,6]]dodeca-1(8),2,4,9,11-pentaen-7-yl]ethyl]cyclohexyl]cyclopropan-1-ol] | 100 to 1000
13 | OC(CC1c2ncccc2-c2cncn21)C1CCC(C2(O)CC2)CC1 (single isomer, unassigned) [Compound 117c, 1-[4-[1-hydroxy-2-[4,6,9-triazatricyclo[6.4.0.0^[2,6]]dodeca-1(8),2,4,9,11-pentaen-7-yl]ethyl]cyclohexyl]cyclopropan-1-ol] | > 1000
14 | OC(CC1c2ncccc2-c2cncn21)C1CCC(C2(O)CC2)CC1 (single isomer, unassigned) [Compound 117d, 1-[4-[1-hydroxy-2-[4,6,9-triazatricyclo[6.4.0.0^[2,6]]dodeca-1(8),2,4,9,11-pentaen-7-yl]ethyl]cyclohexyl]cyclopropan-1-ol] | > 1000
15 | COc1ccc2c(n1)C(CC(N)C1CCCCC1)n1cncc1-2 (single isomer, unassigned) [Compound 118b, 1-cyclohexyl-2-[10-methoxy-4,6,9-triazatricyclo[6.4.0.0^[2,6]]dodeca-1(8),2,4,9,11-pentaen-7-yl]ethan-1-amine] | 100 to 1000
16 | COc1ccc2c(n1)C(CC(N)C1CCCCC1)n1cncc1-2 (single isomer, unassigned) [Compound 118c, 1-cyclohexyl-2-[10-methoxy-4,6,9-triazatricyclo[6.4.0.0^[2,6]]dodeca-1(8),2,4,9,11-pentaen-7-yl]ethan-1-amine] | > 1000
17 | COc1ccc2c(n1)C(CC(N)C1CCC(C)(C)CC1)n1cncc1-2 (single isomer, unassigned) [Compound 119a, 1-(4,4-dimethylcyclohexyl)-2-[10-methoxy-4,6,9-triazatricyclo[6.4.0.0^[2,6]]dodeca-1(8),2,4,9,11-pentaen-7-yl]ethan-1-amine] | > 1000
18 | COc1ccc2c(n1)C(CC(N)C1CCC(C)(C)CC1)n1cncc1-2 (single isomer, unassigned) [Compound 119b, 1-(4,4-dimethylcyclohexyl)-2-[10-methoxy-4,6,9-triazatricyclo[6.4.0.0^[2,6]]dodeca-1(8),2,4,9,11-pentaen-7-yl]ethan-1-amine] | > 1000

Row | Structure (SMILES) | IC50 [nM]
19 | COc1ccc2c(n1)C(CC(N)C1CCC(C)(C)CC1)n1cncc1-2 (single isomer, unassigned) [Compound 119c, 1-(4,4-dimethylcyclohexyl)-2-[10-methoxy-4,6,9-triazatricyclo[6.4.0.0^[2,6]]dodeca-1(8),2,4,9,11-pentaen-7-yl]ethan-1-amine] | 100 to 1000
20 | COc1ccc2c(n1)C(CC(N)C1CCC(C)(C)CC1)n1cncc1-2 (single isomer, unassigned) [Compound 119d, 1-(4,4-dimethylcyclohexyl)-2-[10-methoxy-4,6,9-triazatricyclo[6.4.0.0^[2,6]]dodeca-1(8),2,4,9,11-pentaen-7-yl]ethan-1-amine] | > 1000
21 | COc1ccc2c(n1)C(CC(N)C1CCC(F)(F)CC1)n1cncc1-2 (single isomer, unassigned) [Compound 120a, 1-(4,4-difluorocyclohexyl)-2-[10-methoxy-4,6,9-triazatricyclo[6.4.0.0^[2,6]]dodeca-1(8),2,4,9,11-pentaen-7-yl]ethan-1-amine] | > 1000
22 | COc1ccc2c(n1)C(CC(N)C1CCC(F)(F)CC1)n1cncc1-2 (single isomer, unassigned) [Compound 120b, 1-(4,4-difluorocyclohexyl)-2-[10-methoxy-4,6,9-triazatricyclo[6.4.0.0^[2,6]]dodeca-1(8),2,4,9,11-pentaen-7-yl]ethan-1-amine] | > 1000
23 | COc1ccc2c(n1)C(CC(N)C1CCC(F)(F)CC1)n1cncc1-2 (single isomer, unassigned) [Compound 120c, 1-(4,4-difluorocyclohexyl)-2-[10-methoxy-4,6,9-triazatricyclo[6.4.0.0^[2,6]]dodeca-1(8),2,4,9,11-pentaen-7-yl]ethan-1-amine] | 100 to 1000
24 | COc1ccc2c(n1)C(CC(N)C1CCC(F)(F)CC1)n1cncc1-2 (single isomer, unassigned) [Compound 120d, 1-(4,4-difluorocyclohexyl)-2-[10-methoxy-4,6,9-triazatricyclo[6.4.0.0^[2,6]]dodeca-1(8),2,4,9,11-pentaen-7-yl]ethan-1-amine] | > 1000
25 | NS(=O)(=O)C1CCC(F)(CCC2c3ccccc3-c3cncn32)CC1 (single isomer, unassigned) [Compound 121a, 4-fluoro-4-[2-[5H-imidazo[4,3-a]isoindol-5-yl]ethyl]cyclohexane-1-sulfonamide] | < 100
26 | NS(=O)(=O)C1CCC(F)(CCC2c3ccccc3-c3cncn32)CC1 (single isomer, unassigned) [Compound 121b, 4-fluoro-4-[2-[5H-imidazo[4,3-a]isoindol-5-yl]ethyl]cyclohexane-1-sulfonamide] | > 1000
27 | NS(=O)(=O)C1CCC(F)(CCC2c3ccccc3-c3cncn32)CC1 (single isomer, unassigned) [Compound 121c, 4-fluoro-4-[2-[5H-imidazo[4,3-a]isoindol-5-yl]ethyl]cyclohexane-1-sulfonamide] | > 1000
28 | NS(=O)(=O)C1CCC(F)(CCC2c3ccccc3-c3cncn32)CC1 (single isomer, unassigned) [Compound 121d, 4-fluoro-4-[2-[5H-imidazo[4,3-a]isoindol-5-yl]ethyl]cyclohexane-1-sulfonamide] | < 100
29 | OC(CC1c2c(ccnc2F)-c2cncn21)C1CCCCC1 (centres unmarked) [Compound 2a, 1-Cyclohexyl-2-[9-fluoro-4,6,10-triazatricyclo[6.4.0.0^[2,6]]dodeca-1(8),2,4,9,11-pentaen-7-yl]ethan-1-ol] | > 1000
30 | OC(CC1c2c(F)cncc2-c2cncn21)C1CCCCC1 (centres unmarked) [Compound 3a, 1-cyclohexyl-2-[9-fluoro-4,6,11-triazatricyclo[6.4.0.0^[2,6]]dodeca-1(8),2,4,9,11-pentaen-7-yl]ethan-1-ol] | > 1000
31 | OC1CCC(C(O)CC2c3ncccc3-c3cncn32)CC1 (centres unmarked) [Compound 6a, 4-[1-hydroxy-2-[4,6,9-triazatricyclo[6.4.0.0^[2,6]]dodeca-1(8),2,4,9,11-pentaen-7-yl]ethyl]cyclohexan-1-ol] | > 1000
32 | OC(CC1c2cnccc2-c2cncn21)C1CCCCC1 (centres unmarked) [Compound 9a, 1-Cyclohexyl-2-[4,6,10-triazatricyclo[6.4.0.0^[2,6]]dodeca-1(8),2,4,9,11-pentaen-7-yl]ethan-1-ol] | > 1000
33 | COc1cc2c(cn1)-c1cncn1C2CC(O)C1CCCCC1 (centres unmarked) [Compound 11b, 1-cyclohexyl-2-[10-methoxy-4,6,11-triazatricyclo[6.4.0.0^[2,6]]dodeca-1(8),2,4,9,11-pentaen-7-yl]ethan-1-ol] | > 1000
34 | OC(CC1c2ncccc2-c2cncn21)c1ccccc1 (centres unmarked) [Compound 12b, 1-Phenyl-2-[4,6,9-triazatricyclo[6.4.0.0^[2,6]]dodeca-1(8),2,4,9,11-pentaen-7-yl]ethan-1-ol] | > 1000
35 | O[C@H]1CC[C@](F)(CC[C@@H]2c3ccccc3-c3cncn32)CC1 [Compound 14a, (1R,4s)-4-(2-((R)-5H-imidazo[5,1-a]isoindol-5-yl)ethyl)-4-fluorocyclohexan-1-ol] | > 1000
